From patent publication US20230135729A1, “COMPOUND WITH ANTI-SPORE ACTIVITY AND PHARMACEUTICAL COMPOSITION THEREOF” (priority 2020, published 2023)
Converted amounts (≈) assume the structure as drawn.

Tests used:
Assay type in all cases: cell-based
[1] = test system: spores of ATCC BBA1870 strain; assay: Inhibition of germination of C. difficile spores (MIC), strain ATCC BBA1870; details: Clostridioides difficile, ATCCBBA1870STRAIN, 1 h; strain 1870; sodium taurocholate as germinant, BHIS medium, 37° C., OD580 for 60 min; read-out: MIC (minimum concentration that completely inhibits spore germination)
Procedure: (§1) According to a method disclosed in “The Journal of Infectious Diseases. 2013; 207: 1498-504”, spores of ATCC BBA1870, ATCC 43255 and ATCC 630 strains were obtained by culture and purification, and stored at 4° C.
(§2) Spore preparation: the C. difficile spores stored at 4° C. were heat-activated for 30 min at 65° C., centrifuged at 9,400 g for 2 min, and washed three times to remove any self-germinating spores.
(§3) Control drug: three cholic acid derivatives, a compound CamSA, a compound 20β (prepared by the method of “Journal of Medicinal Chemistry. 2017, 60 (8): 3451-3471”), and a compound 12a (prepared by the method of “Journal of Medicinal Chemistry. 2018, 61, 6759-6778”), were used as control drugs.
(§4) Compound preparation: the compound of the present disclosure, and the positive control drugs CamSA, 20β, and 12a were dissolved in DMSO, to prepare a stock solution with a concentration of 10 mM (prepared for immediate use).
(§5) The detection was conducted in a 96-well cell culture plate at a constant temperature of 37° C.; a final volume of each well of the 96-well plate was […] and a buffer was the BHIS medium; 150 μl of spores and drugs were added to the well in advance, and 50 μl of 4 mg/ml sodium taurocholate was added; OD580 was detected every 1 min immediately using a microplate reader, for continuously 60 min. A germination agent control group and a non-germination group were set up; after the detection, a final OD value of each well was compared with an initial value, and compared with the germination agent group to calculate a germination rate and an inhibition rate. A formula for the germination rate was:
(§6) Inhibition rate=100%−germination rate.

[2] = test system: spores of ATCC 43255 strain; assay: Inhibition of germination of C. difficile spores (MIC), strain ATCC 43255; details: Clostridioides difficile, ATCC43255, 1 h; strain 43255; sodium taurocholate as germinant, BHIS medium, 37° C., OD580 for 60 min; read-out: MIC (minimum concentration that completely inhibits spore germination)
Procedure: as §1, §2, §3, §4, §5, §6

[3] = test system: spores of ATCC 630 strain; assay: Inhibition of germination of C. difficile spores (MIC), strain ATCC 630; details: Clostridioides difficile, ATCC630, 1 h; strain 630; sodium taurocholate as germinant, BHIS medium, 37° C., OD580 for 60 min; read-out: MIC (minimum concentration that completely inhibits spore germination)
Procedure: as §1, §2, §3, §4, §5, §6

SMILES	MIC [1]	MIC [2]	MIC [3]
CC(C)[C@H](NC(=O)C[C@@H](C)[C@H]1CC[C@H]2[C@@H]3C(=O)C[C@@H]4CC(=O)CC[C@]4(C)[C@H]3CC[C@]12C)c1cccs1 [Compound I-67]	> 256 µM	> 256 µM	> 256 µM
CCC(NC(=O)C[C@@H](C)[C@H]1CC[C@H]2[C@@H]3C(=O)C[C@@H]4CC(=O)CC[C@]4(C)[C@H]3CC[C@]12C)c1ccc(Cl)s1 (stereo partly drawn) [Compound I-68]	1 µM (≈ 0.532 µg/mL)	2 µM (≈ 1.06 µg/mL)	1 µM (≈ 0.532 µg/mL)
CC[C@H](NC(=O)C[C@@H](C)[C@H]1CC[C@H]2[C@@H]3C(=O)C[C@@H]4CC(=O)CC[C@]4(C)[C@H]3CC[C@]12C)c1ccc(Cl)s1 [Compound I-69]	8 µM (≈ 4.26 µg/mL)	16 µM (≈ 8.52 µg/mL)	8 µM (≈ 4.26 µg/mL)
CC[C@@H](NC(=O)C[C@@H](C)[C@H]1CC[C@H]2[C@@H]3C(=O)C[C@@H]4CC(=O)CC[C@]4(C)[C@H]3CC[C@]12C)c1ccc(Cl)s1 [Compound I-70]	0.25 µM (≈ 0.133 µg/mL)	0.5 µM (≈ 0.266 µg/mL)	0.25 µM (≈ 0.133 µg/mL)
CC[C@H](NC(=O)C[C@@H](C)[C@H]1CC[C@H]2[C@@H]3C(=O)C[C@@H]4CC(=O)CC[C@]4(C)[C@H]3CC[C@]12C)c1ccc(Br)s1 [Compound I-71]	32 µM (≈ 18.5 µg/mL)	16 µM (≈ 9.23 µg/mL)	16 µM (≈ 9.23 µg/mL)
CC[C@@H](NC(=O)C[C@@H](C)[C@H]1CC[C@H]2[C@@H]3C(=O)C[C@@H]4CC(=O)CC[C@]4(C)[C@H]3CC[C@]12C)c1ccc(Br)s1 [Compound I-72]	1 µM (≈ 0.577 µg/mL)	1 µM (≈ 0.577 µg/mL)	0.5 µM (≈ 0.288 µg/mL)
CC[C@H](NC(=O)C[C@@H](C)[C@H]1CC[C@H]2[C@@H]3C(=O)C[C@@H]4CC(=O)CC[C@]4(C)[C@H]3CC[C@]12C)c1ccc(S(=O)(=O)O)s1 [Compound I-73]	> 256 µM	> 256 µM	> 256 µM
CC[C@@H](NC(=O)C[C@@H](C)[C@H]1CC[C@H]2[C@@H]3C(=O)C[C@@H]4CC(=O)CC[C@]4(C)[C@H]3CC[C@]12C)c1ccc(S(=O)(=O)O)s1 [Compound I-74]	16 µM (≈ 9.24 µg/mL)	16 µM (≈ 9.24 µg/mL)	16 µM (≈ 9.24 µg/mL)
CC(C)C(NC(=O)C[C@@H](C)[C@H]1CC[C@H]2[C@@H]3C(=O)C[C@@H]4CC(=O)CC[C@]4(C)[C@H]3CC[C@]12C)c1ccc(Cl)s1 (stereo partly drawn) [Compound I-75]	0.5 µM (≈ 0.273 µg/mL)	0.5 µM (≈ 0.273 µg/mL)	0.5 µM (≈ 0.273 µg/mL)
CC(C)[C@H](NC(=O)C[C@@H](C)[C@H]1CC[C@H]2[C@@H]3C(=O)C[C@@H]4CC(=O)CC[C@]4(C)[C@H]3CC[C@]12C)c1ccc(Cl)s1 [Compound I-76]	> 256 µM	> 256 µM	> 256 µM
CC(C)[C@@H](NC(=O)C[C@@H](C)[C@H]1CC[C@H]2[C@@H]3C(=O)C[C@@H]4CC(=O)CC[C@]4(C)[C@H]3CC[C@]12C)c1ccc(Cl)s1 [Compound I-77]	0.25 µM (≈ 0.137 µg/mL)	0.25 µM (≈ 0.137 µg/mL)	0.25 µM (≈ 0.137 µg/mL)
CC(C)C(NC(=O)C[C@@H](C)[C@H]1CC[C@H]2[C@@H]3C(=O)C[C@@H]4CC(=O)CC[C@]4(C)[C@H]3CC[C@]12C)c1ccc(Br)s1 (stereo partly drawn) [Compound I-78]	0.5 µM (≈ 0.295 µg/mL)	1 µM (≈ 0.591 µg/mL)	0.5 µM (≈ 0.295 µg/mL)
CC(C)[C@H](NC(=O)C[C@@H](C)[C@H]1CC[C@H]2[C@@H]3C(=O)C[C@@H]4CC(=O)CC[C@]4(C)[C@H]3CC[C@]12C)c1ccc(Br)s1 [Compound I-79]	8 µM (≈ 4.73 µg/mL)	8 µM (≈ 4.73 µg/mL)	4 µM (≈ 2.36 µg/mL)
CC(C)[C@@H](NC(=O)C[C@@H](C)[C@H]1CC[C@H]2[C@@H]3C(=O)C[C@@H]4CC(=O)CC[C@]4(C)[C@H]3CC[C@]12C)c1ccc(Br)s1 [Compound I-80]	0.125 µM (≈ 0.0738 µg/mL)	0.125 µM (≈ 0.0738 µg/mL)	0.125 µM (≈ 0.0738 µg/mL)
CC(C)C(NC(=O)C[C@@H](C)[C@H]1CC[C@H]2[C@@H]3C(=O)C[C@@H]4CC(=O)CC[C@]4(C)[C@H]3CC[C@]12C)c1ccc(S(=O)(=O)O)s1 (stereo partly drawn) [Compound I-81]	32 µM (≈ 18.9 µg/mL)	32 µM (≈ 18.9 µg/mL)	32 µM (≈ 18.9 µg/mL)
CC(C)[C@H](NC(=O)C[C@@H](C)[C@H]1CC[C@H]2[C@@H]3C(=O)C[C@@H]4CC(=O)CC[C@]4(C)[C@H]3CC[C@]12C)c1ccc(S(=O)(=O)O)s1 [Compound I-82]	> 256 µM	256 µM (≈ 152 µg/mL)	> 256 µM
CC(C)[C@@H](NC(=O)C[C@@H](C)[C@H]1CC[C@H]2[C@@H]3C(=O)C[C@@H]4CC(=O)CC[C@]4(C)[C@H]3CC[C@]12C)c1ccc(S(=O)(=O)O)s1 [Compound I-83]	16 µM (≈ 9.47 µg/mL)	16 µM (≈ 9.47 µg/mL)	16 µM (≈ 9.47 µg/mL)
CCC(NC(=O)C[C@@H](C)[C@H]1CC[C@H]2[C@@H]3[C@H](O)C[C@@H]4CC(=O)CC[C@]4(C)[C@H]3CC[C@]12C)c1cccs1 (stereo partly drawn) [Compound I-84]	1 µM (≈ 0.5 µg/mL)	1 µM (≈ 0.5 µg/mL)	1 µM (≈ 0.5 µg/mL)
C[C@H](CC(=O)NC(c1cccs1)C1CC1)[C@H]1CC[C@H]2[C@@H]3[C@H](O)C[C@@H]4CC(=O)CC[C@]4(C)[C@H]3CC[C@]12C (stereo partly drawn) [Compound I-85]	0.5 µM (≈ 0.256 µg/mL)	0.5 µM (≈ 0.256 µg/mL)	0.5 µM (≈ 0.256 µg/mL)
CCC(NC(=O)C[C@@H](C)[C@H]1CC[C@H]2[C@@H]3[C@H](O)C[C@@H]4CC(=O)CC[C@]4(C)[C@H]3CC[C@]12C)c1ccc(Cl)s1 (stereo partly drawn) [Compound I-86]	0.5 µM (≈ 0.267 µg/mL)	0.5 µM (≈ 0.267 µg/mL)	0.5 µM (≈ 0.267 µg/mL)
CC[C@H](NC(=O)C[C@@H](C)[C@H]1CC[C@H]2[C@@H]3[C@H](O)C[C@@H]4CC(=O)CC[C@]4(C)[C@H]3CC[C@]12C)c1ccc(Cl)s1 [Compound I-87]	256 µM (≈ 137 µg/mL)	128 µM (≈ 68.4 µg/mL)	128 µM (≈ 68.4 µg/mL)
CC[C@@H](NC(=O)C[C@@H](C)[C@H]1CC[C@H]2[C@@H]3[C@H](O)C[C@@H]4CC(=O)CC[C@]4(C)[C@H]3CC[C@]12C)c1ccc(Cl)s1 [Compound I-88]	0.25 µM (≈ 0.134 µg/mL)	0.25 µM (≈ 0.134 µg/mL)	0.125 µM (≈ 0.0668 µg/mL)
CCC(NC(=O)C[C@@H](C)[C@H]1CC[C@H]2[C@@H]3[C@H](O)C[C@@H]4CC(=O)CC[C@]4(C)[C@H]3CC[C@]12C)c1ccc(Br)s1 (stereo partly drawn) [Compound I-89]	0.5 µM (≈ 0.289 µg/mL)	0.5 µM (≈ 0.289 µg/mL)	0.5 µM (≈ 0.289 µg/mL)
CC[C@H](NC(=O)C[C@@H](C)[C@H]1CC[C@H]2[C@@H]3[C@H](O)C[C@@H]4CC(=O)CC[C@]4(C)[C@H]3CC[C@]12C)c1ccc(Br)s1 [Compound I-90]	> 256 µM	> 256 µM	> 256 µM
CC[C@@H](NC(=O)C[C@@H](C)[C@H]1CC[C@H]2[C@@H]3[C@H](O)C[C@@H]4CC(=O)CC[C@]4(C)[C@H]3CC[C@]12C)c1ccc(Br)s1 [Compound I-91]	0.25 µM (≈ 0.145 µg/mL)	0.25 µM (≈ 0.145 µg/mL)	0.25 µM (≈ 0.145 µg/mL)
CCC(NC(=O)C[C@@H](C)[C@H]1CC[C@H]2[C@@H]3[C@H](O)C[C@@H]4CC(=O)CC[C@]4(C)[C@H]3CC[C@]12C)c1ccc(S(=O)(=O)O)s1 (stereo partly drawn) [Compound I-92]	16 µM (≈ 9.28 µg/mL)	32 µM (≈ 18.6 µg/mL)	16 µM (≈ 9.28 µg/mL)
CC[C@H](NC(=O)C[C@@H](C)[C@H]1CC[C@H]2[C@@H]3[C@H](O)C[C@@H]4CC(=O)CC[C@]4(C)[C@H]3CC[C@]12C)c1ccc(S(=O)(=O)O)s1 [Compound I-93]	> 256 µM	> 256 µM	> 256 µM
CC[C@@H](NC(=O)C[C@@H](C)[C@H]1CC[C@H]2[C@@H]3[C@H](O)C[C@@H]4CC(=O)CC[C@]4(C)[C@H]3CC[C@]12C)c1ccc(S(=O)(=O)O)s1 [Compound I-94]	8 µM (≈ 4.64 µg/mL)	16 µM (≈ 9.28 µg/mL)	8 µM (≈ 4.64 µg/mL)
CC(C)C(NC(=O)C[C@@H](C)[C@H]1CC[C@H]2[C@@H]3[C@H](O)C[C@@H]4CC(=O)CC[C@]4(C)[C@H]3CC[C@]12C)c1ccc(Cl)s1 (stereo partly drawn) [Compound I-95]	0.25 µM (≈ 0.137 µg/mL)	0.25 µM (≈ 0.137 µg/mL)	0.25 µM (≈ 0.137 µg/mL)
CC(C)[C@H](NC(=O)C[C@@H](C)[C@H]1CC[C@H]2[C@@H]3[C@H](O)C[C@@H]4CC(=O)CC[C@]4(C)[C@H]3CC[C@]12C)c1ccc(Cl)s1 [Compound I-96]	4 µM (≈ 2.19 µg/mL)	4 µM (≈ 2.19 µg/mL)	4 µM (≈ 2.19 µg/mL)
